Data reported in the Kinase Knowledgebase extract (Sharma et al. 2016).

Each compound was assayed against PIK3CG (human) (UniProt P48736) (assay: Assessment of PIK3CG Kinase Activity).
Sequence of PIK3CG (human) (P48736 whole entry, looked up): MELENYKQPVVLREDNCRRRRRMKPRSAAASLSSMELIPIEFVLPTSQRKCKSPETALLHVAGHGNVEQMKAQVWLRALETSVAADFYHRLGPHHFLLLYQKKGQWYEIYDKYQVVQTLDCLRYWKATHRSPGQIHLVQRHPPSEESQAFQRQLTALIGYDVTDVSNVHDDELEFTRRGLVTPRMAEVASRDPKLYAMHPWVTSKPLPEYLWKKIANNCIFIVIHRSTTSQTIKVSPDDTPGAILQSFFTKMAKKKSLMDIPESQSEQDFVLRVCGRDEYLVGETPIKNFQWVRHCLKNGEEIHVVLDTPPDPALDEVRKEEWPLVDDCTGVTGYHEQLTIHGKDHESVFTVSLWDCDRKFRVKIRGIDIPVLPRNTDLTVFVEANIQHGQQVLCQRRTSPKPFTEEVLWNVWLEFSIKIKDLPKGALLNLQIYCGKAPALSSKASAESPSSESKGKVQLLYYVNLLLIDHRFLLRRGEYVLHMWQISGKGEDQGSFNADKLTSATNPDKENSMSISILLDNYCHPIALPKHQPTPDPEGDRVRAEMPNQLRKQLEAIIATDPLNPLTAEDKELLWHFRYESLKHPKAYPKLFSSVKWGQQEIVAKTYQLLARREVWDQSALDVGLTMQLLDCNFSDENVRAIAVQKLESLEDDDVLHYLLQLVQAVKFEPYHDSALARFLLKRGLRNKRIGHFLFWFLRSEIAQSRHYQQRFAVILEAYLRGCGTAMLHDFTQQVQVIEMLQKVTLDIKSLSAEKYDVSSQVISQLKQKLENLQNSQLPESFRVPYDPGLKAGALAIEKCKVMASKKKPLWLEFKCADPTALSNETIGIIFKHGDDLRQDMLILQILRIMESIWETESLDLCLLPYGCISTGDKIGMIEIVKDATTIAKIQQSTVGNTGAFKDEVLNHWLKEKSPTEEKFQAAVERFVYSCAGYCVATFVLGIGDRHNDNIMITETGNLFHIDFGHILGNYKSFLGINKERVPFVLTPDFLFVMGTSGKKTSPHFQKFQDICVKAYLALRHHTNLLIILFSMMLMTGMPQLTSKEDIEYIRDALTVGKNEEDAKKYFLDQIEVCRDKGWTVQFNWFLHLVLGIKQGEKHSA

Row | Compound | IC50
1 | CC(C)N1CC(=O)N(C)c2cnc(Nc3cc(NC(=O)[C@@H]4CCCNC4)cc(S(C)(=O)=O)c3)nc21 | < 800 nM
2 | Cc1c[nH]c(CCNC(=O)c2cc(Nc3ncc4c(n3)N(C(C)C)CC(=O)N4C)cc(NS(C)(=O)=O)c2)n1 | < 800 nM
3 | CC(C)N1CC(=O)N(C)c2cnc(Nc3cc(NC(=O)N[C@H]4CC[C@@H](N(C)C)CC4)cc(S(C)(=O)=O)c3)nc21 | < 800 nM
4 | CC(C)NCCS(=O)(=O)c1cccc(Nc2ncc3c(n2)N(C(C)C)CC(=O)N3C)c1 | < 800 nM
5 | CNCCS(=O)(=O)c1cccc(Nc2ncc3c(n2)N(C(C)C)CC(=O)N3C)c1 | < 800 nM
6 | CC(C)N1CC(=O)N(C)c2cnc(Nc3cc(NC(=O)NC[C@@H]4CCNC4)cc(S(C)(=O)=O)c3)nc21 | < 800 nM
7 | CC(C)N1CC(=O)N(C)c2cnc(Nc3cc(NC(=O)CC4CCCC4)cc(S(C)(=O)=O)c3)nc21 | < 800 nM
8 | CC(C)N1CC(=O)N(C)c2cnc(Nc3cc(NS(=O)(=O)c4ccc(F)cc4)cc(S(N)(=O)=O)c3)nc21 | < 800 nM
9 | CC(C)N1CC(=O)N(C)c2cnc(Nc3cc(NC(=O)Cc4cccs4)cc(S(C)(=O)=O)c3)nc21 | < 800 nM
10 | CC(C)N1CC(=O)N(C)c2cnc(Nc3cc(N(C)C(=O)Nc4ccccc4)cc(S(C)(=O)=O)c3)nc21 | < 800 nM
11 | CC(C)N1CC(=O)N(C)c2cnc(Nc3cc(N(C)C(=O)Cc4ccccc4)cc(S(C)(=O)=O)c3)nc21 | < 800 nM
12 | CC(C)N1CC(=O)N(C)c2cnc(Nc3cc(NC(=O)Cc4ccsc4)cc(S(C)(=O)=O)c3)nc21 | < 800 nM
13 | CC(C)N1CC(=O)N(C)c2cnc(Nc3cc(NC(=O)CC4CC4)cc(S(C)(=O)=O)c3)nc21 | < 800 nM
14 | CC(C)N1CC(=O)N(C)c2cnc(Nc3cc(NC(=O)N[C@@H]4CCN(C5CCCC5)C4)cc(S(N)(=O)=O)c3)nc21 | < 800 nM
15 | CC(C)N1CC(=O)N(C)c2cnc(Nc3cc(NS(=O)(=O)c4cccnc4)cc(S(C)(=O)=O)c3)nc21 | < 800 nM
16 | CC(C)N1CC(=O)N(C)c2cnc(Nc3cc(NS(=O)(=O)Cc4ccccc4)cc(S(C)(=O)=O)c3)nc21 | < 800 nM

Row | Compound | IC50
17 | CC(C)N1CC(=O)N(C)c2cnc(Nc3cc(N(C)C(=O)N[C@H]4CCN(C5CCCC5)C4)cc(S(C)(=O)=O)c3)nc21 | < 800 nM
18 | Cc1oncc1C(=O)Nc1cc(Nc2ncc3c(n2)N(C(C)C)CC(=O)N3C)cc(S(C)(=O)=O)c1 | < 800 nM
19 | CC(C)N1CC(=O)N(C)c2cnc(Nc3cc(NC(=O)Cc4cccnc4)cc(S(C)(=O)=O)c3)nc21 | < 800 nM
20 | CCc1cnc(CCNC(=O)Nc2cc(Nc3ncc4c(n3)N(C(C)C)CC(=O)N4C)cc(S(C)(=O)=O)c2)o1 | < 800 nM
21 | CC(C)N1CC(=O)N(C)c2cnc(Nc3cc(NC(=O)Cc4cc5ccccc5n4C)cc(S(C)(=O)=O)c3)nc21 | < 800 nM
22 | CC(C)N1CC(=O)N(C)c2cnc(Nc3cc(NC(=O)[C@@H](C)c4ccccc4)cc(S(C)(=O)=O)c3)nc21 | < 800 nM
23 | Cc1cc(CC(=O)N(C)c2cc(Nc3ncc4c(n3)N(C(C)C)CC(=O)N4C)cc(S(C)(=O)=O)c2)on1 | < 800 nM
24 | CN=[S@@](C)(=O)c1cccc(Nc2ncc3c(n2)N(C(C)C)CC(=O)N3C)c1 | < 800 nM
25 | CC(C)N1CC(=O)N(C)c2cnc(Nc3cc(NS(C)(=O)=O)cc(C(=O)NCCc4ccccn4)c3)nc21 | < 800 nM
26 | CC(C)N1CC(=O)N(C)c2cnc(Nc3cc(NC(=O)Cc4ccc(Cl)nc4)cc(S(C)(=O)=O)c3)nc21 | < 800 nM
27 | CC(C)N1CC(=O)N(C)c2cnc(Nc3cc(NC(=O)Cc4nnn[nH]4)cc(S(C)(=O)=O)c3)nc21 | < 800 nM
28 | CC(C)CCC(=O)Nc1cc(Nc2ncc3c(n2)N(C(C)C)CC(=O)N3C)cc(S(C)(=O)=O)c1 | < 800 nM
29 | CC(C)N1CC(=O)N(C)c2cnc(Nc3cc(NS(C)(=O)=O)cc(C(=O)NC4CCN(C)C4)c3)nc21 (stereo not drawn) | < 800 nM
30 | CC(C)N1CC(=O)N(C)c2cnc(Nc3cccc(S(=O)(=O)CCNC4CCC4)c3)nc21 | < 800 nM
31 | CC(C)N1CC(=O)N(C)c2cnc(Nc3cc(NS(=O)(=O)c4ccc(N5CCOCC5)nc4)cc(S(N)(=O)=O)c3)nc21 | < 800 nM
32 | CC(C)N1CC(=O)N(C)c2cnc(Nc3cc(NC(=O)[C@H](N)c4ccccc4)cc(S(C)(=O)=O)c3)nc21 | < 800 nM

Now from value to compound:

Row | IC50 | Compound
33 | < 800 nM | CC(C)N1CC(=O)N(C)c2cnc(Nc3cc(-c4cc(C5CC5)[nH]n4)cc(S(C)(=O)=O)c3)nc21
34 | < 800 nM | CC(C)N1CC(=O)N(C)c2cnc(Nc3cc(NC(=O)N[C@H]4CCN(C(=O)OC(C)(C)C)C4)cc(S(C)(=O)=O)c3)nc21
35 | < 800 nM | CC(C)N1CC(=O)N(C)c2cnc(Nc3cc(NC(=O)N[C@@H]4CCN(C5CCOCC5)C4)cc(S(C)(=O)=O)c3)nc21
36 | < 800 nM | CC(C)N1CC(=O)N(C)c2cnc(Nc3cc(NC(=O)N(C)C[C@H]4CCCN4C4CCCC4)cc(S(C)(=O)=O)c3)nc21
37 | < 800 nM | CC(C)N1CC(=O)N(C)c2cnc(Nc3cc(CO)cc(S(C)(=O)=O)c3)nc21
38 | < 800 nM | CC(C)N1CC(=O)N(C)c2cnc(Nc3cc(NC(=O)N[C@H]4CC[C@@H](N)CC4)cc(S(C)(=O)=O)c3)nc21
39 | < 800 nM | CC(C)N1CC(=O)N(C)c2cnc(Nc3cc(NS(C)(=O)=O)cc(C(=O)NCCC4CCCN4C)c3)nc21 (stereo not drawn)
40 | < 800 nM | CC(C)N1CC(=O)N(C)c2cnc(Nc3cccc(S(=O)(=O)CCO)c3)nc21
41 | < 800 nM | CC(C)N1CC(=O)N(C)c2cnc(Nc3cc(NC(=O)Cc4cc5cc(F)ccc5[nH]4)cc(S(C)(=O)=O)c3)nc21
42 | < 800 nM | CC(C)N1CC(=O)N(C)c2cnc(Nc3cc(C(N)=O)cc(S(C)(=O)=O)c3)nc21
43 | < 800 nM | CC(C)N1CC(=O)N(C)c2cnc(Nc3cc(CS(C)(=O)=O)cc(C(F)(F)F)c3)nc21
44 | < 800 nM | CNS(=O)(=O)c1cccc(Nc2ncc3c(n2)N(C(C)C)CC(=O)N3C)c1
45 | < 800 nM | CC(C)N1CC(=O)N(C)c2cnc(Nc3cc(C(=O)NCCN4CCNC4=O)cc(C(F)(F)F)c3)nc21
46 | < 800 nM | CN1C(=O)CN(c2ccccc2)c2nc(Nc3cccc(S(=O)(=O)CCN4CCCCC4)c3)ncc21
47 | < 800 nM | CC(C)N1CC(=O)N(C)c2cnc(Nc3cc(NC(=O)C[C@H]4CCN(C5CCCC5)C4)cc(S(C)(=O)=O)c3)nc21
48 | < 800 nM | CC(C)N1CC(=O)N(C)c2cnc(Nc3cc(NC(=O)N[C@H]4CCNC4)cc(S(C)(=O)=O)c3)nc21
49 | < 800 nM | CC(C)N1CC(=O)N(C)c2cnc(Nc3cc(C(=O)NCCc4ccncc4)cc(S(C)(=O)=O)c3)nc21
50 | < 800 nM | CC(C)N1CC(=O)N(C)c2cnc(Nc3cc(NS(=O)(=O)c4cccnc4)cc(S(N)(=O)=O)c3)nc21
51 | < 800 nM | CC(C)N1CC(=O)N(C)c2cnc(Nc3cc(C(=O)NCCN(C)C)cc(S(C)(=O)=O)c3)nc21
52 | < 800 nM | CC(C)N1CC(=O)N(C)c2cnc(Nc3cc(C(F)(F)F)cc(S(C)(=O)=O)c3)nc21
53 | < 800 nM | CNC(=O)c1cc(Nc2ncc3c(n2)N(C(C)C)CC(=O)N3C)cc(S(C)(=O)=O)c1
54 | < 800 nM | CC(C)N1CC(=O)N(C)c2cnc(Nc3cc(NC(=O)NC[C@H]4CCCN4C4CCCC4)cc(S(C)(=O)=O)c3)nc21
55 | < 800 nM | CC(C)N1CC(=O)N(C)c2cnc(Nc3cc(C(=O)NC4CCN(C)CC4)cc(S(C)(=O)=O)c3)nc21
56 | < 800 nM | CCN1CCCC1CNC(=O)c1cc(Nc2ncc3c(n2)N(C(C)C)CC(=O)N3C)cc(NS(C)(=O)=O)c1 (stereo not drawn)
57 | < 800 nM | CC(C)N1CC(=O)N(C)c2cnc(Nc3cc(N(C)C(=O)N[C@@H](C)c4ccccc4)cc(S(C)(=O)=O)c3)nc21
58 | < 800 nM | CC[C@@H]1CN(c2cccc(Nc3ncc4c(n3)N(C(C)C)CC(=O)N4C)c2)C(=O)CN1C
